Measurements from patent US20240051952A1, “HMOX1 INDUCERS” (Mitobridge Inc., priority 2019, published 2024).

test system: Human Heme Oxygenase-1 (HMOX-1); assay: ELISA assay to measure human heme oxygenase-1 (HMOX-1) in HepG2 lysate; format: cell-based; settings: fold change of human HMOX1 protein levels relative to DMSO control, HepG2
In short: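 HO-1 protein quantified by chemiluminescent sandwich ELISA against a 2-fold standard series starting at 20 ng/ml. Samples were 1:20-diluted HepG2 lysates made in Triton X-100/EDTA buffer with protease inhibitors. Capture antibody coated at 8 μg/ml, detection antibody used at 200 ng/ml, room-temperature (20 °C) steps.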

Row | SMILES | Maximum Fold induction
1 | Cn1c(Nc2nc3ncccc3o2)nc2cc(C(=O)O)ccc21 [Example 111, 1-methyl-2-(oxazolo[4,5-b]pyridin-2-ylamino)-1H-benzo[d]imidazole-5-carboxylic acid] | 3
2 | Cn1c(Nc2nc3ccc(OCCO)cc3o2)nc2cc(C(=O)NOCCO)ccc21 [Example 129, N-(2-hydroxyethoxy)-2-((6-(2-hydroxyethoxy)benzo[d]oxazol-2-yl)amino)-1-methyl-1H-benzo[d]imidazole-5-carboxamide] | 54-58
3 | COCCNC(=O)c1ccc2c(c1)nc(Nc1nc3ccc(OC(F)(F)F)cc3o1)n2CC1(O)COC1 [Example 94, 1-((3-hydroxyoxetan-3-yl)methyl)-N-(2-methoxyethyl)-2-((6-(trifluoromethoxy)benzo[d]oxazol-2-yl)amino)-1H-benzo[d]imidazole-5-carboxamide] | 28
4 | CN(C)CCn1c(Nc2nc3ccc(OC(F)(F)F)cc3o2)nc2cc(C(=O)O)ccc21 [Example 74, 1-(2-(dimethylamino)ethyl)-2-((6-(trifluoromethoxy)benzo[d]oxazol-2-yl)amino)-1H-benzo[d]imidazole-5-carboxylic acid] | 17-28
5 | Cn1c(Nc2nc3ccc(C4CC4)cc3o2)nc2cc(C(=O)O)ccc21 [Example 115, 2-((6-cyclopropylbenzo[d]oxazol-2-yl)amino)-1-methyl-1H-benzo[d]imidazole-5-carboxylic acid] | 71
6 | COCCNC(=O)c1ccc2c(c1)nc(Nc1nc3cc(C)ccc3o1)n2C [Example 65, N-(2-methoxyethyl)-1-methyl-2-((5-methylbenzo[d]oxazol-2-yl)amino)-1H-benzo[d]imidazole-5-carboxamide] | 15-42
7 | Cl.Cn1c(Nc2nc3ccc(OCCO)cc3o2)nc2cc(C(=O)NCCN)ccc21 [Example 105, N-(2-aminoethyl)-2-((6-(2-hydroxyethoxy)benzo[d]oxazol-2-yl)amino)-1-methyl-1H-benzo[d]imidazole-5-carboxamide hydrochloride] | 36
8 | COCCNC(=O)c1ccc2c(c1)nc(Nc1nc3cc(F)ccc3o1)n2C [Example 67, 2-((5-fluorobenzo[d]oxazol-2-yl)amino)-N-(2-methoxyethyl)-1-methyl-1H-benzo[d]imidazole-5-carboxamide] | 18-56
9 | COCCNC(=O)c1ccc2c(c1)nc(Nc1nc3c(s1)COCC3)n2C [Example 11, 2-((6,7-dihydro-4H-pyrano[4,3-d]thiazol-2-yl)amino)-N-(2-methoxyethyl)-1-methyl-1H-benzo[d]imidazole-5-carboxamide] | 5
10 | O=C(O)c1ccc2c(c1)nc(Nc1nc3ccc(OC(F)(F)F)cc3o1)n2CC1(O)COC1 [Example 93, 1-((3-hydroxyoxetan-3-yl)methyl)-2-((6-(trifluoromethoxy)benzo[d]oxazol-2-yl)amino)-1H-benzo[d]imidazole-5-carboxylic acid] | 22
11 | Cn1c(Nc2nc3ccc(C(F)(F)F)cc3o2)nc2cc(C(=O)NCCOCC(=O)O)ccc21 [Example 41, 2-(2-(1-methyl-2-((6-(trifluoromethyl)benzo[d]oxazol-2-yl)amino)-1H-benzo[d]imidazole-5-carboxamido)ethoxy)acetic acid] | 35-39
12 | COCCOc1ccc2nc(Nc3nc4cc(C(=O)NCCOCCO)ccc4n3C)oc2c1 [Example 58, N-(2-(2-hydroxyethoxy)ethyl)-2-((6-(2-methoxyethoxy)benzo[d]oxazol-2-yl)amino)-1-methyl-1H-benzo[d]imidazole-5-carboxamide] | 41-60
13 | Cn1c(Nc2nc3ccccc3o2)nc2cc(C(=O)NCCOCCO)c(F)cc21 [Example 72, 2-(benzo[d]oxazol-2-ylamino)-6-fluoro-N-(2-(2-hydroxyethoxy)ethyl)-1-methyl-1H-benzo[d]imidazole-5-carboxamide] | 31-72
14 | O=C(O)c1ccc2c(c1)nc(Nc1nc3ccc(OC(F)(F)F)cc3o1)n2CC1CCOC1 (stereo not drawn) [Example 87, 1-((tetrahydrofuran-3-yl)methyl)-2-((6-(trifluoromethoxy)-benzo[d]oxazol-2-yl)amino)-1H-benzo[d]imidazole-5-carboxylic acid] | 21
15 | CS(=O)(=O)CCn1c(Nc2nc3ccc(OC(F)(F)F)cc3o2)nc2cc(C(=O)O)ccc21 [Example 89, 1-(2-(methylsulfonyl)ethyl)-2-((6-(trifluoromethoxy)benzo[d]oxazol-2-yl)amino)-1H-benzo[d]imidazole-5-carboxylic acid] | 10
16 | Cn1c(Nc2nc3ccc(OC(F)(F)F)cc3o2)nc2cc(C(=O)NCCS(C)(=O)=O)ccc21 [Example 54, 1-methyl-N-(2-(methylsulfonyl)ethyl)-2-((6-(trifluoromethoxy)benzo[d]oxazol-2-yl)amino)-1H-benzo[d]imidazole-5-carboxamide] | 31-37
17 | COCCNC(=O)c1ccc2c(c1)nc(Nc1nc3ccc(C(C)C)cc3o1)n2C [Example 60, 2-((6-isopropylbenzo[d]oxazol-2-yl)amino)-N-(2-methoxyethyl)-1-methyl-1H-benzo[d]imidazole-5-carboxamide] | 42-56
18 | Cn1c(Nc2nc3ccc(OC(F)(F)F)cc3o2)nc2cc(C(=O)Nc3cn[nH]c3)ccc21 [Example 46, 1-methyl-N-(1H-pyrazol-4-yl)-2-((6-(trifluoromethoxy)benzo[d]oxazol-2-yl)amino)-1H-benzo[d]imidazole-5-carboxamide] | 14-20
19 | Cn1c(Nc2nc3ccc(-c4cscn4)cc3o2)nc2cc(C(=O)NCCOCCO)ccc21 [Example 134, N-(2-(2-hydroxyethoxy)ethyl)-1-methyl-2-((6-(thiazol-4-yl)benzo[d]oxazol-2-yl)amino)-1H-benzo[d]imidazole-5-carboxamide] | 42-70
20 | Cn1c(Nc2nc3ccc(OCCO)cc3o2)nc2cc(C(=O)NCCNC3=NCCN3)ccc21 [Example 106, N-(2-((4,5-dihydro-1H-imidazol-2-yl)amino)ethyl)-2-((6-(2-hydroxyethoxy)benzo[d]oxazol-2-yl)amino)-1-methyl-1H-benzo[d]imidazole-5-carboxamide] | 6
21 | CCn1c(Nc2nc3ccc(OC(F)(F)F)cc3o2)nc2cc(C(=O)O)ccc21 [Example 84, 1-ethyl-2-((6-(trifluoromethoxy)benzo[d]oxazol-2-yl)amino)-1H-benzo[d]imidazole-5-carboxylic acid] | 17
22 | Cn1c(Nc2nc3ccccc3o2)nc2cc(C(=O)NCCN3CCOCC3)ccc21 [Example 20, 2-(benzo[d]oxazol-2-ylamino)-1-methyl-N-(2-morpholinoethyl)-1H-benzo[d]imidazole-5-carboxamide] | 8

The next lines start with the values.

Row | Maximum Fold induction | SMILES
23 | 12 | Cn1c(Nc2nc3ccccc3o2)nc2cc(C(=O)NCCOCC(=O)O)ccc21 [Example 29, 2-(2-(2-(benzo[d]oxazol-2-ylamino)-1-methyl-1H-benzo[d]imidazole-5-carboxamido)ethoxy)acetic acid]
24 | 15-24 | Cn1c(Nc2nc3ccc(OC(F)F)cc3o2)nc2cc(C(=O)O)ccc21 [Example 62, 2-((6-(difluoromethoxy)benzo[d]oxazol-2-yl)amino)-1-methyl-1H-benzo[d]imidazole-5-carboxylic acid]
25 | 56-82 | Cn1c(Nc2nc3ccc(C(F)(F)F)cc3o2)nc2cc(C(=O)NCC(O)CO)ccc21 (stereo not drawn) [Example 39, N-(2,3-dihydroxypropyl)-1-methyl-2-((6-(trifluoromethyl)benzo[d]oxazol-2-yl)amino)-1H-benzo[d]imidazole-5-carboxamide]
26 | 19-22 | Cn1c(Nc2nc3cc(F)ccc3o2)nc2cc(C(=O)O)ccc21 [Example 66, 2-((5-fluorobenzo[d]oxazol-2-yl)amino)-1-methyl-1H-benzo[d]imidazole-5-carboxylic acid]
27 | 39-56 | Cn1c(Nc2nc3ccc(Cl)cc3o2)nc2cc(C(=O)O)ccc21 [Example 96, 2-((6-chlorobenzo[d]oxazol-2-yl)amino)-1-methyl-1H-benzo[d]imidazole-5-carboxylic acid]
28 | 51-67 | CN(C)CCONC(=O)c1ccc2c(c1)nc(Nc1nc3ccc(C(F)(F)F)cc3o1)n2C [Example 122, N-(2-(dimethylamino)ethoxy)-1-methyl-2-((6-(trifluoromethyl)benzo[d]oxazol-2-yl)amino)-1H-benzo[d]imidazole-5-carboxamide]
29 | 22 | Cn1c(Nc2nc3ccccc3o2)nc2cc(C(N)C(F)(F)F)ccc21 (stereo not drawn) [Example 141, N-(5-(1-amino-2,2,2-trifluoroethyl)-1-methyl-1H-benzo[d]imidazol-2-yl)benzo[d]oxazol-2-amine]
30 | 19 | Cn1c(Nc2nc3ccccc3o2)nc2cc(/C(=N/O)C(F)(F)F)ccc21 [Example 140, (Z)-1-(2-(benzo[d]oxazol-2-ylamino)-1-methyl-1H-benzo[d]imidazol-5-yl)-2,2,2-trifluoroethan-1-one oxime]
31 | 49 | Cn1c(Nc2nc3ccccc3o2)nc2cc(C(=O)NCC(O)CO)ccc21 (stereo not drawn) [Example 24, 2-(benzo[d]oxazol-2-ylamino)-N-(2,3-dihydroxypropyl)-1-methyl-1H-benzo[d]imidazole-5-carboxamide]
32 | 41 | Cn1c(Nc2nc3ccccc3o2)nc2cc(C(=O)NCCN3CCCC3)ccc21 [Example 28, 2-(benzo[d]oxazol-2-ylamino)-1-methyl-N-(2-(pyrrolidin-1-yl)ethyl)-1H-benzo[d]imidazole-5-carboxamide]
33 | 14-50 | COCCNC(=O)c1ccc2c(c1)nc(Nc1nc3ccc(C(F)(F)F)cc3o1)n2C [Example 32, N-(2-methoxyethyl)-1-methyl-2-((6-(trifluoromethyl)benzo[d]oxazol-2-yl)amino)-1H-benzo[d]imidazole-5-carboxamide]
